According to article PMC10973839, “CHF6297: a novel potent and selective p38 MAPK inhibitor with robust anti-inflammatory activity and suitable for inhaled pulmonary administration as dry powder” (Frontiers in Pharmacology, 2024):
Where two headings read alike, the source gives them in different places.

Key:
rat PBMCs = test: TNF-α release in LPS-stimulated PBMCs; format: cell-based
Description: Peripheral blood mononuclear cells (PBMCs) were isolated from the blood of healthy human volunteers and Wistar rats (250–350 gr; Charles River, Calco, Italy) using a standard density gradient centrifugation technique. The citrated blood was placed onto Histopaque^TM and centrifuged. The PBMCs were then removed from the density gradient interface and washed in phosphate-buffered saline (PBS). The PBMCs were suspended in RPMI 1640 medium (without serum), aliquoted into a 96-well plate, and incubated at 37°C for 3 h in a humidified incubator. After incubation, the medium was replaced (with a medium containing 1% fetal bovine serum), and the plate was incubated at 37°C, for 1 h, in the presence of a test compound or the appropriate vehicle. LPS (10 ng/mL), or an appropriate vehicle control, was then added to the cells, and the plate was returned to the incubator for 18 h. Cell-free supernatants were removed and assayed for TNF-α levels using MSD plates on the SECTOR Imager 6000 (Meso Scale).

HBSMCs = test: CSE-evoked IL-8 release in human bronchial smooth muscle cells; format: cell-based
Description: Cigarette smoke extract (CSE) was generated as reported previously ([Moretto et al., 2012]). Briefly, aqueous CSE was obtained from the combustion of four cigarettes (Marlboro Red, 12 mg tar, 0.9 mg nicotine each) bubbled through 50 mL of the culture medium and subsequently filtered through a 0.2-μm-pore filter (Millipore, Billerica, MA). To ensure reproducibility among different CSE batches, the absorbance [optical density (OD)] measured at 320 nm was used as a measure of the “strength” of the extract. Dilutions were made with culture media to obtain the desired absorbance. The CSE was freshly prepared on the day of the experiment and immediately used after preparation. Human bronchial smooth muscle cells (HBSMCs) were seeded in DMEM with 10% FBS (50 U/mL penicillin, 0.05 mg/mL streptomycin, and 2 mM L-glutamine) in 48-well plates at a density of 10,000 cells/well, grown to ∼80%–90% confluence and incubated overnight in serum-free DMEM before treatments. All the treatments were performed in serum-free DMEM. The cells were pretreated for 30 min with either the vehicle or CHF6297 or losmapimod before stimulation with freshly prepared CSE, TNF-α, (1 ng/mL), or the vehicle for 18 h at 37°C. Human IL-8 was measured in the collected supernatants by use of a paired-antibody quantitative ELISA kit (BioSource International, Camarillo, CA).

[1] = tested on: IAV-induced airway neutrophilia in HDM-challenged mice; test: Influenza virus A (H3N2)-induced exacerbation in HDM-sensitized mice; format: in vivo, Balb/c mice
[2] = tested on: i.v. LPS-induced TNF-α in blood; test: Intravenous LPS-induced TNF-α release in rat blood; format: in vivo, rats; conditions: 0.3 mg/kg lactose-blended dry powder via inhalation, 2 h before i.v. LPS (0.3 mg/kg)
[3] = Inhalation pharmacokinetics in rats; format: in vivo, male Wistar rats; conditions: for Lung Cmax: 30-min nose-only inhalation; for Plasma Tmax: IAD: immediately after dosing; for Lung Tmax: IAD: immediately after dosing (5 min after end of exposure); for half-life: lung, read-out: Lung t1/2 (converted); for Cmax / AUC(0-t): plasma; for AUC(0-t): read-out: Plasma AUClast
Description: Inhalation pharmacokinetics (PK) of CHF6297 as micronised dry powder blended with lactose 20% w/w was investigated in male Wistar rats at 2 dose levels (0.1 and 1 mg/kg) using the nose-only inhalation delivery system (Figure 8). For each PK study, 21 rats were placed in suitable plastic restrainers and connected to the inhalation tower. Inhalation system parameters were set to achieve a nominal dose of 0.1 mg/kg and 1 mg/kg in 30 min of exposure. The particle size and actual dose are given in Supplementary Material (Table 2). At the end of the inhalation period, the animals were returned to their cages. […] Then, lung samples were immediately excised, externally washed with cold saline, accurately weighed, homogenized using a temperature-controlled Precellys homogenizer (Bertin Technologies, France), and stored at −80 °C until analysis.
Plasma and lung samples were analyzed by using an HPLC-MS/MS system, consisting of a 4000 QTRAP mass spectrometer (AB Sciex LLC, Framingham, MA, United States) with an electrospray ionization (ESI) source, coupled to an Agilent 1100 HPLC (Agilent Technologies, Santa Clara, CA, United States). Analyte separation was performed using a Gemini C18 column (Phenomenex Inc., Torrance, CA, United States) and water with 0.1% v/v AcOH in the gradient with acetonitrile with 0.1% v/v AcOH as eluents. Sample preparation was performed by protein precipitation using preassembled filtration devices (Mini-UniPrep Syringeless Filters, 0.45 µm PTFE, Whatman, GE Healthcare, Buckinghamshire, United Kingdom). Aliquots of 50 μL of the sample (plasma or homogenate) were transferred to the bottom part of the device, spiked with 10 μL of the appropriate internal standard solution, and 150 μL of acetonitrile was added. The calibration and quality control samples were prepared by adding 10 µL of the CHF6297 working standard solution in acetonitrile to 50 µL of the blank matrix. After vortex mixing, the obtained mixture was filtered by manual compression of the device, and the filtered solution was diluted with 100 μL of water. The Mini-UniPrep devices were directly placed in the autosampler rack of the HPLC system. Pharmacokinetic evaluation and parameter determination (Cmax, Tmax, AUClast, and t1/2) were performed with Phoenix 64 software (Certara, New Jersey, United States) using non-compartmental analysis. Since the actual dose was within ±5% of the nominal one, the nominal dose was used for PK calculation.

[4] = tested on: LPS-induced neutrophil influx in BALF; test: LPS-induced BALF neutrophilia in rats
Description: For intratracheal (i.t.) administration of LPS or IL-1β, animals were anesthetized with sevoflurane (4% in oxygen), and a laryngoscope was moved forward into the mouth to visualize the trachea and guide the insertion of a fine-tipped PE 100 tube (air-jet delivery system) directly into the trachea and located 1–2 mm above the carina bifurcation. LPS or IL-1β at a concentration of 5 μg/kg and 0.3 μg/kg, respectively, was prepared as a saline solution in a 0.5 mL/kg volume and was blown into the airways during the spontaneous inspiration phase in an air volume of 2 mL.
Each dose group was allocated to a separate system, and each system was housed in an individual ventilated hood.
Powder generation: Compound and vehicle blends were compressed into canisters by using a hydraulic press at 50 bar to prepare a stable “tablet” and ensure a uniform pack density. The Wright Dust Feeder (WDF) comprised an electric motor, gears, a scraper blade, air entry, and a final jet and baffle array. The scraper blade scraped off a fine layer of powder, driven by the motor, and the output speed was determined by the configuration of the gears. The scraped powder was then blown out of the dust feed at its base through a jet which focused the powder stream at a baffle, thus reducing aggregation and producing a fine particulate. The WDF was attached to an aerosol conditioning pre-chamber for the delivery of the powder to the inhalation tower. The generation of the powder was monitored throughout the exposure periods either visually or electronically with a dust monitor.
Inhalation tower: The nose-only inhalation tower was a modular apparatus of anodized aluminum comprising a base unit, two animal sections, and a top section, connected to an earth lead to prevent the formation of any static build-up. During the exposures, the rats were held in restraining tubes, with their snouts protruding into the exposure chamber (see Supplementary Material, Figure 1). The rate of airflow through the WDF was 19 L/min, and that of the exhaust airflow was 20 L/min (vehicle, 0.1 and 1 mg/kg doses) or 40 L/min (0.03 mg/kg doses). The air supply and extract were monitored using in-line flowmeters and recorded manually.
The inhaled dose was derived using the following equation ([Alexander et al., 2008]): delivered dose (μg/kg) = (Conc. × RMV × D)/BW, where Conc. = concentration of CHF-6297 in the air inhaled (µg/L); RMV = volume of air inhaled in 1 min (L/min) 0.608 × BW (kg) 0.852; D = duration of exposure to the aerosol (min); and BW = body weight (kg).
Animals were dosed either 1 h (dose–response curve) or 24 h (duration of action) before LPS challenge. Four hours after endotoxin challenge or saline injection, bronchoalveolar lavage fluid (BALF) was collected for cell counting.
Animals were anesthetized with sevoflurane (4% in oxygen) and euthanized by bleeding from the abdominal aorta. BALF was obtained by gently washing the lungs with three aliquots (4 mL each) of 100 mL of solution A [Hank’s balanced salt solution (HBSS) × 10; 100 mL of 100 mM EDTA; 10 mL of 1 mM HEPES; and 790 mL of distilled water]. […] The resulting BALF was centrifuged at 800 × g for 10 min at 4°C. […] The cell count per animal was calculated from the number of cells for 1 µL of BALF multiplied by the volume used for the resuspension of the cell pellet.

[5] = male, Wistar, rat, inhaled or intranasal, 0.1 mg/kg
[6] = male, Wistar, rat, inhaled or intranasal, 1.0 mg/kg

## C[C@H]1CCCCN1c1nnc2ccc(O[C@@H]3CC[C@H](NC(=O)Nc4cc(C(C)(C)C)nn4-c4cnn(CCN(C)C)c4)c4ccccc43)cn12 [CHF6297]
Rat PBMCs; PBMC, LPS 10 ng/mL, 18 h
  IC50: 1.4 nM
Rat PBMCs; TNF-α release
  fold less potent than AZD7624: 7 fold
HBSMCs; CSE-evoked
  maximum inhibition of IL-8: 100%
HBSMCs; Homo sapiens, 18 h
  IC50: 0.79 nM
[1]; 30 μg/kg i.n. twice daily for 3 days
  neutrophils in BAL fluid: 2.78 ± 0.28 × 10^5 cells/mL
[1]; 100 μg/kg twice daily for 3 days
  neutrophils in BAL fluid: 1.29 ± 0.119 × 10^5 cells/mL
[2]
  effect on TNF-α levels in blood: no significant inhibition of TNF-α levels
[3]; 0.1 mg/kg
  Lung AUClast: 42,097 h*ng/g
  Lung Cmax: 7,187 ng/g
  Plasma Tmax: IAD
  Lung Tmax: IAD
[3]; 1.0 mg/kg
  Lung Cmax: 54,000 ng/g
  Plasma Tmax: IAD
  Lung Tmax: IAD
[3]; [5]
  half-life: 10.2 h
  Cmax: 2.77 ng/mL
  AUC(0-t): 7.32 ng·h/mL
[3]; [6]
  half-life: 10.2 h
  Cmax: 20.6 ng/mL
  AUC(0-t): 60.1 ng·h/mL
[3]; male, Wistar, rat, inhaled, 0.1 mg/kg
  half-life: 10 h
[3]; male, Wistar, rat, inhaled, 1.0 mg/kg
  half-life: 10 h
[3]; male, Wistar, rat, lung/plasma, inhaled, at the two dose levels (0.1 and 1 mg/kg), read-out: lung/plasma ratio (AUClast lung / AUClast plasma)
  Kp: ~6000
[4]; 0.1 mg/kg nose-only dry powder, 1 h before LPS, BALF 4 h after challenge
  neutrophils in BALF: 1.18 × 10^6 ± 0.27 × 10^6 neutrophils
[4]; 0.1 mg/kg nose-only dry powder, 24 h before LPS
  neutrophils in BALF: 1.9 × 10^6 ± 0.3 × 10^6 neutrophils
[4]; 1 mg/kg nose-only dry powder, 1 h before LPS, BALF 4 h after challenge
  neutrophils in BALF: 0.7 × 10^6 ± 0.12 × 10^6 neutrophils
[4]; 1 mg/kg nose-only dry powder, 24 h before LPS
  neutrophils in BALF: 1.45 × 10^6 ± 0.19 × 10^6 neutrophils
[4]; Rattus norvegicus, Neutrophil, read-out: ED50, inhibition of pulmonary neutrophilia
  ED50: 0.064 mg/kg
